Measured values published in patent US20040121965A1, “Method of treating resistant tumors” (Wyeth Holdings Corporation, priority 2002, published 2004).
Where two headings read alike, the source gives them in different places. Marks after values point to notes of the source that are not given here.

Key:
HL60 = assay: Cell survival assay (MTS), HL60; format: cell-based; settings: Homo sapiens
S1-M1-3.2 (MXR) = assay: Cell survival assay, S1-M1-3.2 (MXR); format: cell-based, human; settings: for IC50: Homo sapiens, read-out: S1-M1-3.2 (MXR) IC50, nM (N)
Source text: (§1) Cells lines with previously known mechanisms of resistance. […] Res. 8: 207-218,1996); KB-3-1 (parental derived from an epidermoid carcinoma), KB-8.5, KB-V1 (Akiyama S-I, Fojo A, Hanover J A, Pastan I, Gottesman M M. Isolation and genetic characterization of human KB cell lines resistant to multiple drugs. Somatic Cell Mol. Gen., 11: 117-126,1985; Shen D-W, Cardarelli C, Hwang J, Cornwell M, Richert N, Ishii S, Pastan I, Gottesman MM. […] J. Biol. Chem., 261: 7762-7770, 1986); and HL-60 (parental derived from human leukemia) and HL60/AR (McGrath T., Center M. S. Adriamycin resistance in HL60 cells in the absence of detectable P-glycoprotein. Biochem. Res. Commun., 145:1171-1176,1987); A549 and A549.EpoB40 (He L., Yang C.-P.H., Horwitz S. B. Mutations in p-tubulin map to domains involved in regulation of microtubule stability in epothilone-resistant cell lines. Molecular Cancer Therapeutics. 1: 3-10, 2001). HCT-15 human colon carcinoma and DLD-1 human colon carcinoma are obtained from American Tissue Culture Collection. The MX-1W carcinoma is a Wyeth variant orginally obtained as MX-1 breast carcinoma from the National Cancer Institute. Cell lines selected for resistance to Representative Example 129. KB-3-1 cells are selected for resistance to Example 129 by chronically exposing cells to increasing concentrations of Example 129.
(§2) 2.2. Cell Survival Assay: Standard Pharmacological Test Procedure. The concentration of candidate inhibitor required to inhibit 50% of cell growth (IC50) is done according to previously reported methods. […] Compounds are serially diluted into media as 2× stocks and 100 μl added to cells in duplicate. Compounds are incubated with cells for 3 days. At the end of the incubation period the sulforhodamine B (SRB) assay, which measures protein content as an assessment of cell survival, is performed as described previously (Skehan P, Storeng R, Scudiero D, Monks A, McMahon J, Vistica D, Warren J T, Bokesch H, Kenney S, Boyd MR. New calorimetric cytotoxicity assay for anticancer-drug screening. J Natl Cancer Inst 1990 Jul 4;82(13):1107-12) with some modification as follows. For KB-3-1 cells with 20% FCS, media is gently decanted and replaced with 200 μl of serum-free media mixed with cold 50% TCA for a final concentration of 10% TCA. The plates are incubated for 1 hr at 4° C., followed by washing 5 times in cold distilled water, then air dried overnight. The fixed cells are stained for 10 min with 80 μl of 0.04% SRB solution prepared in 1% glacial acetic acid. Stain is discarded and plates washed 5 times in 1% glacial acetic acid, then air-dried until completely dry. Stained cell product is dissolved in 150 μl of 10 mM Trizma Base and placed on a shaker for 20 minutes until fully dissolved. Absorbance is read on a Victor V multi-label plate reader (Perkin Elmer, Gaithersburg, Md.).
(§3) J. Cell Science,113: 2011-2021, 2000). It was unknown whether the hemiasterlin family of peptides interact with these drug pumps.

Panc1 = assay: Cell survival assay (SRB), Panc1; format: cell-based; settings: Homo sapiens, PANC-1, 72 h
Description: (§4) 2.2. Cell Survival Assay: Standard Pharmacological Test Procedure. […] Compounds are incubated with cells for 3 days.

BxPC3 = assay: Cell survival assay (SRB), BxPC3; format: cell-based; settings: Homo sapiens, BXPC-3, 72 h
Description: as §4

[1] = test system: Human Melanoma Carcinoma Lox; settings: for inhibition of growth of Lox melanoma xenografts: day 14, P<0.01; for % T/C on day 7 / % T/C on day 12: Lox, days 1,5,9; for Activity in nude mice animal model (% T/C @ MTD on days 11-15) LOX: staged LOX xenograft, at MTD ('<': MTD not achieved)
KM20 = assay: Cell survival assay (SRB), KM20; format: cell-based; settings: 72 h
Description: as §4

SW620 = assay: Cell survival assay (SRB), SW620; format: cell-based; settings: Homo sapiens, SW-620, 72 h
Description: as §4

tumor cell lines = assay: cells; format: cell-based
Source text: as §1, §2

KB-HTI-4.0 = assay: Cell survival assay, KB-3-1 line made resistant to Example 129 (KB-HTI-4.0); format: cell-based, human; settings: for IC50: Homo sapiens
[2] = test system: human carcinoma xenografts; assay: Growth of tumors in nude mice, several xenograft models and tolerated dose; format: in vivo
Source text: (§5) 2.4. Growth of Tumors in Nude Mice.

MX-1W tumor = assay: Growth of tumors in nude mice, MX-1W xenograft; format: in vivo; settings: for % T/C on day 7 / % T/C on day 14: MX-1W, days 1,5,9; for Activity in nude mice animal model (% T/C @ MTD on days 11-15) MX-1W: staged MX-1W xenograft, at MTD
Source text: as §5

HL60/AR (MRP1) = assay: Cell survival assay, HL60/AR (MRP1); settings: for IC50: Homo sapiens, HL-60/AR, read-out: HL60/AR (MRP1) IC50, nM (N)
Source text: as §1, §2, §3

[3] = LOX xenograft model, IV days 1, 5 and 9
[4] = HL60/AR (MRP1) or S1-M1-3.2 (MXR)

In the case of `CN[C@H](C(=O)N[C@H](C(=O)N(C)[C@H](/C=C(\C)C(=O)O)C(C)C)C(C)(C)C)C(C)(C)c1ccccc1` [Example 129, N,β,β-trimethyl-L-phenylalanyl-N^1-[(1S,2E)-3-carboxy-1-isopropylbut-2-enyl]-N^1,3-dimethyl-L-valinamide], the IC50 (HL60; HL-60, 72 h) is reported as 0.21 ± 0.05 nM, the IC50 (HL60; HL-60, read-out: HL60 IC50, nM (N)) is reported as 0.212 ± 0.048 nM and the IC50 (S1-M1-3.2 (MXR)) is reported as 4.8 ± 2.1 nM. The “RR, relative resistance” value (S1-M1-3.2 (MXR); IC50 S1-M1-3.2 / IC50 S1) was 1.3, the IC50 (Panc1) was 2.9 ± 0.1 nM and the IC50 (BxPC3) was 0.7 nM. The “inhibition of growth of Lox melanoma xenografts” value ([1]; 2 mg/kg oral gavage days 1,5,9) was 63%, the “inhibition of growth of Lox melanoma xenografts” value ([1]; 3 mg/kg oral gavage days 1,5,9) was 97% and the weight loss ([1]; 2 and 3 mg/kg oral gavage days 1,5,9) was “less than 10%”. For the same compound, the “growth inhibition of melanoma Lox tumors” value ([1]; IV in saline, days 1, 5, 9 post-staging, 0.5-1 mg/kg, tumors 1-2 gram) was over 95%, the maximum effective dose [1, 3] was about 1.6 mg/kg and the minimum effective dose [1, 3] was “approximately 200 μg/kg”. For the same compound, the “% T/C on day 7” value ([1]; Example 129 1.6 mg/kg IV) was 12** %, the “% T/C on day 12” value ([1]; Example 129 1.6 mg/kg IV) was 2** % and the “Activity in nude mice animal model (% T/C @ MTD on days 11-15) LOX” value [1] was 2.5%. It also gave an IC50 (KM20) of 1.8 ± 0.6 nM, an IC50 (SW620) of 3.6 ± 0.8 nM and an IC50 (tumor cell lines; 72 h, read-out: AVERAGE IC50 (nM), average over the panel of tumor cell lines of Table 1; 3 days) of 2.1 ± 1.7 nM. For the same compound, the “resistance detected in cells over-expressing MRP1 or MXR” value (tumor cell lines; [4]) was “no resistance”, the IC50 (tumor cell lines; read-out: IC50 in cell lines expressing moderate to very high MDR1, MX-1W, NCI-H1299, DLD-1, HCT-15) was 1.1 to 6.8 nM and the IC50 (tumor cell lines; read-out: IC50 in cell lines with undetectable or low level MDR1, NCI-H838, A549, HT-29, HCT-116, KB-3-1) was 0.7 to 1.6 nM. It also gave an IC50 (tumor cell lines; read-out: mean IC50, 34 tumor cell lines (Example 129); N=31 cell lines (paclitaxel)) of 2.1 ± 1.7 nM, an IC50 (tumor cell lines; read-out: median IC50, 34 tumor cell lines (Example 129); N=31 cell lines (paclitaxel)) of 1.7 nM and an IC50 (tumor cell lines; read-out: range of IC50, 34 tumor cell lines (Example 129); N=31 cell lines (paclitaxel)) of 0.2 to 7.3 nM. The IC50 (tumor cell lines; read-out: range of IC50; 34 tumor cell lines (Example 129); N=31 cell lines (paclitaxel)) was 0.2 to 7 nM, the “(RR) relative resistance vs. parental cells” value (KB-HTI-4.0) was “(12)” and the “resistance of KB-3-1-derived cell lines selected with Example 129” value (KB-HTI-4.0) was “approximately 12 fold”. The IC50 (KB-HTI-4.0; KB 3-1, read-out: KB-HTI-4.0 IC50, nM) was 6.5 ± 1.6 nM, the “inhibition of tumor growth” value ([2]; tumors derived from DLD-1, MX-1W or HCT-15) was 60-95% and the “% T/C on day 7” value (MX-1W tumor; Example 129 1.6 mg/kg IV) was 14** %. The “% T/C on day 14” value (MX-1W tumor; Example 129 1.6 mg/kg IV) was 3** %, the “effect on growth of MX-1W tumor” value (MX-1W tumor; orally administered) was “inhibited the growth” and the “Activity in nude mice animal model (% T/C @ MTD on days 11-15) MX-1W” value (MX-1W tumor) was 6%. For the same compound, the IC50 (HL60/AR (MRP1)) was 0.245 ± 0.45 nM and the “RR, relative resistance” value (HL60/AR (MRP1); IC50 HL60/AR / IC50 HL60) was 1.2.
Work on `CC(=O)O[C@H]1C(=O)[C@@]2(C)[C@H]([C@H](OC(=O)c3ccccc3)[C@]3(O)C[C@H](OC(=O)[C@H](O)[C@@H](NC(=O)c4ccccc4)c4ccccc4)C(C)=C1C3(C)C)[C@]1(OC(C)=O)CO[C@@H]1C[C@@H]2O` [paclitaxel, reference compound] yielded an IC50 (HL60; HL-60, 72 h, HL60, leukemia, 3 days, MTS assay, read-out: IC50) of 1.8 nM, an IC50 (HL60; HL-60, HL60 parental, Table 5, read-out: HL60 IC50, nM (N)) of 1.8 nM and an IC50 (S1-M1-3.2 (MXR); S1-M1-3.2, MXR over-expression, Table 5) of 108 ± 88 nM. For the same compound, the IC50 (Panc1; Panc1, pancreatic, 3 days, SRB staining, read-out: IC50) was 28.9 nM, the IC50 (BxPC3; BxPC3, pancreatic, 3 days, SRB staining, read-out: IC50) was 10.8 nM and the “% T/C on day 7” value ([1]; paclitaxel 60 mg/kg IV) was 16** %. For the same compound, the “% T/C on day 12” value ([1]; paclitaxel 60 mg/kg IV) was 4** %, the “Activity in nude mice animal model (% T/C @ MTD on days 11-15) LOX” value [1] was 4% and the IC50 (KM20; KM20, colon, 3 days, SRB staining, read-out: IC50) was 8.9 ± 1.9 nM. The IC50 (SW620; SW620, colon, 3 days, SRB staining, read-out: IC50) was 18 nM, the IC50 (tumor cell lines; 34 tumor cell lines (Example 129); N=31 cell lines (paclitaxel); read-out: mean IC50) was 80.2 nM and the IC50 (tumor cell lines; 34 tumor cell lines (Example 129); N=31 cell lines (paclitaxel); read-out: median IC50) was 9 nM. The IC50 (tumor cell lines; 34 tumor cell lines (Example 129); N=31 cell lines (paclitaxel); read-out: range of IC50) was 1.8 to 1590 nM, the IC50 (tumor cell lines; 72 h, average over the panel of tumor cell lines of Table 1; 3 days; read-out: AVERAGE IC50) was 80.2 nM and the “resistance detected in cells over-expressing MRP1 or MXR” value (tumor cell lines; [4]) was “no resistance”. It also gave an IC50 (tumor cell lines; MX-1W, NCI-H1299, DLD-1, HCT-15; read-out: IC50 in cell lines expressing moderate to very high MDR1) of 15 to 438 nM, an IC50 (tumor cell lines; NCI-H838, A549, HT-29, HCT-116, KB-3-1; read-out: IC50 in cell lines with undetectable or low level MDR1) of 3.9 to 8.8 nM and an IC50 (KB-HTI-4.0; KB-3-1 line made resistant to Example 129, Table 8, read-out: KB-HTI-4.0 IC50) of 3.18 ± 0.62 nM. For the same compound, the response of tumors ([2]; DLD-1, MX-1W or HCT-15 tumors, at or near the MTD) was “no response”, the “% T/C on day 7” value (MX-1W tumor; paclitaxel 60 mg/kg IV) was 76% and the “% T/C on day 14” value (MX-1W tumor; paclitaxel 60 mg/kg IV) was 77%. For the same compound, the “Activity in nude mice animal model (% T/C @ MTD on days 11-15) MX-1W” value (MX-1W tumor) was 73% and the IC50 (HL60/AR (MRP1)) was 5.2 nM.
